Counter-ions that a name gives are not always drawn. Like-named read-outs stand apart in the source and are kept apart here.
Tests used:
5-HT1C binding site = molecular target: T1, 5-HT1C binding site (Sus scrofa, UniProt K7GSR7); test: [^3 H]-mesulergine binding to pig choroid plexus membranes in vitro
T1 construct: Pooled pig choroid plexi were homogenised; from tissue; host or cells: pig choroid plexus membranes
T1 sequence (K7GSR7 1-457): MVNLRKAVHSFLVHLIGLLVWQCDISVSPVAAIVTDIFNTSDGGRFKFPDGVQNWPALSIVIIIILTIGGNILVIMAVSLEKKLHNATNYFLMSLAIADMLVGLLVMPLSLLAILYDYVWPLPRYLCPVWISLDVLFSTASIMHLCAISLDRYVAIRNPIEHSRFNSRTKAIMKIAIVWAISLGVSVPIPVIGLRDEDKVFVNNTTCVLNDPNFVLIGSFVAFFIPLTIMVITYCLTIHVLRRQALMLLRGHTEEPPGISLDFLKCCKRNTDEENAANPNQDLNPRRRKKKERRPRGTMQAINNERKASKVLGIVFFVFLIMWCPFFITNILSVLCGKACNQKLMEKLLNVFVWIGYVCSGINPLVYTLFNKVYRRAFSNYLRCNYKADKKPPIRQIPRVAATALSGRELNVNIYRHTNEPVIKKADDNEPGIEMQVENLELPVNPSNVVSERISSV
Text: [^3 H]-mesulergine binding to pig choroid plexus membranes in vitro
(Curzon and Kennett, 1990; Fozard and Gray, 1989) and Alzheimer's Disease (Lawlor, 1989, J. Arch. Gen. Psychiat. Vol. 46 p.542).
The affinity of test drugs for the 5-HT1C binding site can be determined by assessing their ability to displace [^3 H]-mesulergine from 5-HT1C binding sites in pig choroid plexus membranes. The method employed was similar to that of Pazos et al, 1984.
Pooled pig choroid plexi were homogenised in 20 vols of Tris HCl buffer (pH7.4) (containing 4 mM CaCl2 and 0.01% ascorbic acid) and centrifuged at 50,000 g for 15 rain at 4° C. The supernatant was removed and re-centrifuged. This was repeated a further two times with the incubation of the homogenate (37° C. for 15 min) before the final centrifugation. The final pellet was resuspended in 20 vols of buffer and stored at -70° C. until use.
The tissue suspension (50 μl) was incubated with [^3 H]-mesulergine (2 nM) in Tris HCl buffer (pH7.4) at 37° C. (containing 0.01% ascorbic acid, 4 mM CaCl2) and 3×10^-8 M spiperone for 30 minutes. Non-specific binding was measured in the presence of mianserin (10^-6 M). Six concentrations of test drug (10^-9 to 10^-4 M final concentration) were added in a volume of 50 μl. The total assay volume was 500 μl. Incubation was stopped by rapid filtration using a Skatron cell harvester and radioactivity measured by liquid scintillation spectrometry. The IC50 values were determined and the pKi (the negative logarithm of the inhibition constant) calculated from the Cheng Prusoff equation where [formula] wherein: Ki =inhibition constant.
C=concentration of [^3 H]-mesulergine
Kd=Affinity of mesulergine for 5-HT1C binding sites.
Curzon, G. A. and Kennett, G. A. (1990). TIPS, Vol. 11, 181-182. Fozard, J. R. and Gray, J. A. (1989). TIPS, Vol. 10, 307-309. Pazos, A. et al. (1984). Eur. J. Pharmacol., 106, 531-538.

[1] = molecular target: T2, 5-HT receptor that has the characteristics of a 5-HT1C receptor (Rattus norvegicus, UniProt P30994); test: Rat stomach fundus: 5-HT1C antagonist action (inhibition of 5-HT-induced contractions); conditions: rat stomach strips; test drug 10^-6 M for 30 mins; 5-HT dose-response; read-out: apparent dissociation constant, KB
T2 construct: from tissue; host or cells: rat stomach fundus strips
T2 sequence (P30994 whole entry): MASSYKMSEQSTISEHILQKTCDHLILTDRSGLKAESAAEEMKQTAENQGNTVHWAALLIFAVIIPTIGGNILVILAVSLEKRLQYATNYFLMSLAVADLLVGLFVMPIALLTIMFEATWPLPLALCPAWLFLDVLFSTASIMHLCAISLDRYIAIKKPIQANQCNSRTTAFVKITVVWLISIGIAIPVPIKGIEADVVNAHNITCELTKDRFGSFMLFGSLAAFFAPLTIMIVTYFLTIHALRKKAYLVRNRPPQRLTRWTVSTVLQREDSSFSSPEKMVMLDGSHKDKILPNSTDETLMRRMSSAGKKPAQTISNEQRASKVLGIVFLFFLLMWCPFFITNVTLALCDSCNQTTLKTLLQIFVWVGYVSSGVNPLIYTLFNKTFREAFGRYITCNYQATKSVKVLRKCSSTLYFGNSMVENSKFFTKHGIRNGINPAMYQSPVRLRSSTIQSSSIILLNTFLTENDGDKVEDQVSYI
Method: 5-Hydroxytryptamine (5-HT) induces contractions of the rat stomach fundus through a 5-HT receptor that has the characteristics of a 5-HT1C receptor (Blackburn et al, 1990).
Rat stomach strips (6×4 mm) were suspended under a 4 g tension in 5 ml baths containing Tyrode solution, gassed with a mixture of 95% O2 /5% CO2. After a 1 hour equilibration period, two dose response curves were constructed to 5-HT (final concentrations, 10^-9 to 3×10^-6 M). Test drugs were then incubated at a final concentration of 10^-6 M for 30 mins and another dose-response curve constructed to 5-HT. The apparent dissociation constant of a test drug, KB, can be calculated from the equation where [formula] where B=concentration of the test drug and DR=the dose ratio (the factor by which the concentration of the agonist has to be increased in the presence of the test drug to obtain an identical effect observed in the absence of the test drug).

[2] = Social Interaction Test (potential anxiolytic properties); format: in vivo, rat; conditions: male rats; p.o. 1 h pretest; doses of 2-40 mg/kg
Text: Potential anxiolytic properties have been evaluated using the social interaction test based on that described by File (1980 J. Neurosci. Meth., 2, 219). Active social interaction between male rats is usually quantitated by counting interactive behaviours such as following, grooming, sniffing, climbing over or under, biting, mounting and boxing. This behaviour is supressed when the rats encounter each other in an environment which is novel and brightly lit. Under these circumstances anxiolytic drugs will enhance the level of social interaction.
Rats were housed in groups of 8 in a holding room adjacent to the experimental chamber for 8 days. They were then housed singly in the same room for 3 days prior to the experimental day. On the experimental day rats were injected p.o. 1 h pretest with vehicle or drug in pairs at 15 min intervals beginning at 10.00 am. 60 Mins later they were placed with a weight matched pair mate (encountered for the first time) in the social interaction box in a separate room. The box was made of while perspex 54×37×26 cm with no lid. The floor was divided into 24 equal squares and the cage was brightly lit. Active social interaction was scored blind over the next 15 min by remote video monitoring to give total interaction scores. The number of squares crossed by each rat was also scored and summed. […]

[3] = Geller-Seifter Procedure (potential anxiolytic properties); format: in vivo, rat; conditions: rats; 30 min before testing; dose levels in the range 5-40 mg/kg p.o.
Method: Potential anxiolytic properties are evaluated using the Geller-Seifter procedure based on that originally described by Geller and Seifter, (1960) Psychopharmacologia, 1, 482-492.
Rats are trained on a variable interval 30 sec schedule (VI30) to press a lever in order to obtain food reward. The 5 min sessions of the VI30 schedule alternate with 2-5 min of a schedule (FR5) in which every 5th lever press is followed by presentation of a food pellet paired with a 0.5 sec mild footshock. The total study lasts approximately 30 mins. Rats typically respond with high rates of lever pressing under the VI30 schedule and low response rates under the FR5 `conflict` session. Anxiolytic drugs increase the suppressed response rates of rats in a `conflict` session.
Drugs are administered intraperitoneally or orally to groups of 3-8 rats 30 min before testing.
The results are expressed as the percentage increase in the square root of the total number of lever presses in the FR5 `conflict` session. Square root transformation is necessary to normalise the data for statistical analysis using parametric methods.

[4] = test system: rat stomach fundus serotonin receptor; conditions: P. Fludzinski et. al., J. Med. Chem. 1986 29 2415-2418; cited from earlier work

| SMILES | Ki (5-HT1C binding site) [nM] | Kb [1] [nM] | Ki (5-HT1C binding site; [^3 H]-mesulergine 2 nM, pig choroid plexus membranes, 3×10^-8 M spiperone, pH7.4, 37° C., 30 minutes, pKi from IC50 by Cheng Prusoff equation, read-out: [^3 ]-Mesulergine pKi (converted)) [nM] | social interaction [2] | responding in the `conflict` session (percentage increase in square root of total lever presses in FR5) [3] | selectivity for the rat stomach fundus serotonin receptor [4] |
| --- | --- | --- | --- | --- | --- | --- |
| CCc1c(C)n(C)c2ccc(NC(=O)Nc3cccnc3)cc12 [E1, N-(1,2-Dimethyl-3-ethyl-1H-indol-5-yl)-N'-(3-pyridyl)urea hydrochloride] | 25.1 | 32 |  |  |  |  |
| Cl.Cn1ccc2cc(NC(=O)Nc3cccnc3)ccc21 [E2, N-(1-Methyl-1H-indol-5-yl)-N'-(3-pyridyl)urea hydrochloride] |  | 100 | 158 | significant increase in social interaction | significant increase in responding in the `conflict` session |  |
| Cc1c(C)n(C)c2ccc(NC(=O)Nc3cccnc3)cc12 [E3, N-(1,2,3-Trimethyl-1H-indol-5-yl)-N'-(3-pyridyl)urea hydrochloride] | 200 | 25 |  |  |  |  |
| CCCn1ccc2cc(NC(=O)Nc3cccnc3)ccc21 [E4, N-(1-Propyl-1H-indol-5-yl)-N'-(3-pyridyl)urea oxalate] | 200 | 400 |  |  |  |  |
| Cn1ccc2c(NC(=O)Nc3cccnc3)cccc21 [E5, N-(1-Methyl-1H-indol-4-yl)-N'-(3-pyridyl)urea hydrochloride] | 200 | 250 |  |  |  |  |
| Cn1ccc2ccc(NC(=O)Nc3cccnc3)cc21 [E6, N-(1-Methyl-1H-indol-6-yl)-N'-(3-pyridyl)urea hydrochloride] | 316 | 170 |  |  |  |  |
| CCc1c(C)n(C)c2ccc(NC(=O)Nc3cccc(C(F)(F)F)c3)cc12 [N-(1,2-dimethyl-3-ethyl-1H-indol-5-yl)-N'-(3-trifluoromethylphenyl)urea] |  |  |  |  |  | shows selectivity for the rat stomach fundus serotonin receptor |
